The structures appear in SMILES notation.

This assay deals with T1, MAGL (recombinant wild-type) (Homo sapiens, UniProt Q99685).
T1 sequence (Q99685 1-303): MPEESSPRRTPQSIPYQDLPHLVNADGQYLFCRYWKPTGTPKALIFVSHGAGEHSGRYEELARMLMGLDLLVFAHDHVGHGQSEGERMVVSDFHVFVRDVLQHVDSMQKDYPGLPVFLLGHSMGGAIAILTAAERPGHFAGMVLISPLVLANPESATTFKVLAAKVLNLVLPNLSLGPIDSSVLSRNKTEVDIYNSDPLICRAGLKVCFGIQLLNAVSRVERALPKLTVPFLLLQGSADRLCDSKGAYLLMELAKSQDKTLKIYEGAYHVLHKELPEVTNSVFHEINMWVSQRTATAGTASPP
In words: MAGL inhibition, 4-NPA assay (hydrolysis of 4-nitrophenylacetate, absorbance at 405 nm). The settings on record: 4-NPA assay (footnote [a]: values not marked [b]). The class given is biochemical. On the procedure: Compounds were profiled for MAGL inhibitory activity by measuring the enzymatic activity of MAGL by following the hydrolysis of 4-nitrophenylacetate resulting in 4-nitrophenol, which absorbs at 405-412 nm (G. G. Muccioli, G. Labar, D. M. Lambert, Chem. Bio. Chem. 2008, 9, 2704-2710). This assay is hereinafter abbreviated “4-NPA assay”.
The assay was carried out in 384 well assay plates (black with clear bottom, non-binding surface treated, Corning Ref. 3655) in a total volume of 40 μL. Compound dilutions were made in 100% DMSO (VWR Chemicals 23500.297) in a polypropylene plate in 3-fold dilution steps to give a final concentration range in the assay from 25 μM to 1.7 nM. 1 μL compound dilutions (100% DMSO) were added to 19 μL MAGL (recombinant wild-type) in assay buffer (50 mM TRIS (GIBCO, 15567-027), 1 mM EDTA (Fluka, 03690-100 mL)). The plate was shaked for 1 min at 2000 rpm (Variomag Teleshake) and then incubated for 15 min at RT. To start the reaction, 20 μL 4-Nitrophenlyacetate (Sigma N-8130) in assay buffer with 6% EtOH was added. The final concentrations in the assay were 1 nM MAGL and 300 μM 4-Nitrophenylacetate. After shaking (1 min, 2000 rpm) and 5 min incubation at RT, the absorbance at 405 nm was measured for a first time (Molecular Devices, SpectraMax Paradigm). A second measurement was then done after incubation for 80 min at RT. From the two measurements, the slope was calculated by subtracting the first from the second measurement.
Take `O=C1CO[C@H]2CCN(C(=O)N3CCC(c4cncc(C(F)(F)F)c4)CC3)C[C@H]2N1` [Example 29, (4aR,8aS)-6-(4-(5-(Trifluoromethyl)pyridin-3-yl)piperidine-1-carbonyl)hexahydro-2H-pyrido[4,3-b][1,4]oxazin-3(4H)-one]: the half-inhibitory concentration (IC50) (in general, the concentration at which inhibition is half-maximal) was 703 nM.
For `O=C1CO[C@H]2CCN(C(=O)N3CCC(C(F)(F)c4ccc(C(F)(F)F)cc4)CC3)C[C@H]2N1` [Example 30, (4aR,8aS)-6-(4-(Difluoro(4-(trifluoromethyl)phenyl)methyl)piperidine-1-carbonyl)hexahydro-2H-pyrido[4,3-b][1,4]oxazin-3(4H)-one], the half-maximal inhibitory concentration (IC50) is 25 nM.
As for `O=C1CO[C@H]2CCN(C(=O)N3CC(C(c4ccc(F)cc4)c4ccc(F)cc4)C3)C[C@H]2N1` [Example 82, (4aR,8aS)-6-(3-(bis(4-Fluorophenyl)methyl)azetidine-1-carbonyl)hexahydro-2H-pyrido[4,3-b][1,4]oxazin-3(4H)-one], the 50% inhibitory concentration (IC50) stood at 1200 nM.

The values above are taken from patent US20230117324A1, “OXAZINE MONOACYLGLYCEROL LIPASE (MAGL) INHIBITORS” (Hoffmann-La Roche Inc., priority 2018, published 2023).
